Converted amounts (≈) assume the structure as drawn.
How the values were obtained:
[1] = test system: group A beta-haemolytic streptococcal (GABHS) pharyngitis; test: Phase III trial, GABHS pharyngitis/tonsillitis; assay type: in vivo, human
[2] = test system: E. coli (Ec); test: E-test, recurrent UTI isolates of children; assay type: cell-based, Escherichia coli
[3] = Phase 3 trial, complicated intra-abdominal infections; assay type: in vivo, human
[4] = test system: MDR-MRSA; test: MIC, MBC; assay type: cell-based, Staphylococcus aureus; settings: time kill, two strains
[5] = test system: CA-MRSA; test: MIC, MBC; assay type: cell-based, Staphylococcus aureus; settings: time kill, two strains
[6] = test system: Salmonella serotype Typhimurium; test: Disk diffusion, food isolates Spain; assay type: cell-based; settings: n = 53
[7] = test system: inducible Enterobacteriaceae; test: SMART 2003, intraabdominal isolates; assay type: cell-based
[8] = test system: Salmonella serotype Enteritidis; test: Disk diffusion, food isolates Spain; assay type: cell-based; settings: n = 96
[9] = test system: Salmonella, other 49 serotypes; test: Disk diffusion, food isolates Spain; assay type: cell-based; settings: n = 115
[10] = test system: K. pneumoniae; test: MIC; assay type: cell-based, Klebsiella pneumoniae; settings: Klebsiella pneumoniae
[11] = test system: Klebsiella; test: SMART 2003 Europe, microdilution; assay type: cell-based, Klebsiella spp.; settings: 341 isolates
[12] = test system: Pseudomonas aeruginosa; test: MIC, strains from cystic fibrosis patients; settings: by MIC
[13] = test system: Escherichia coli; test: Vitek 2 susceptibility, urine isolates of children; assay type: cell-based
[14] = test system: Acinetobacter; test: Disk diffusion; assay type: cell-based; settings: 37 isolates selected as resistant to beta-lactams
[15] = test system: Nocardia spp.; test: E-test on Mueller Hinton agar, 81 clinical isolates; assay type: cell-based
[16] = test system: Enterobacteriaceae; test: SMART 2003 Europe, microdilution; assay type: cell-based; settings: 1948 isolates
[17] = test system: Nocardia spp.; test: Time-kill at peak-serum concentrations, seven strains; assay type: cell-based; settings: of seven strains; 24, 72 h
[18] = test system: E. coli; test: SMART 2003 Europe, microdilution; assay type: cell-based, Escherichia coli; settings: 1106 isolates
[19] = test system: P. aeruginosa; test: Disk diffusion, urine isolates of BPH patients
[20] = test system: H. influenzae; test: Broth microdilution; assay type: cell-based, Haemophilus influenzae; settings: 267 isolates
[21] = test system: S. pneumoniae; test: Broth microdilution; assay type: cell-based, Streptococcus pneumoniae; settings: 275 isolates
[22] = test system: MSSA; test: Agar dilution MIC; assay type: cell-based, Staphylococcus aureus
[23] = test system: Shigella spp.; test: Disk diffusion, stool isolates Tehran; assay type: cell-based; settings: 96 isolates
[24] = test system: biofilms of S. aureus (SA204 and SA195) and S. epidermidis (ATCC35983 and ATCC35984); test: Antibiotic lock, in vitro biofilm on polyurethane film, viable counts; assay type: cell-based, Staphylococcus species; settings: any of the time intervals examined
[25] = test system: H. influenzae (HI); test: SENTRY Brazil, NCCLS broth microdilution; assay type: cell-based, Haemophilus influenzae
[26] = test system: S. pneumoniae (SPN); test: SENTRY Brazil, NCCLS broth microdilution; assay type: cell-based, Streptococcus pneumoniae
[27] = test system: Salmonella spp.; test: Agar dilution susceptibility, gastroenteritis isolates Cuba; assay type: cell-based; settings: 34 strains, 2002
[28] = test system: nontyphoidal Salmonella; test: Agar dilution, isolates from chickens 1998–2004; assay type: cell-based, Salmonella spp.
[29] = test system: Escherichia coli O157:H7; test: Kirby-Bauer susceptibility; assay type: cell-based; settings: 30 strains, 1990–2003

## CC[C@H]1OC(=O)[C@H](C)[C@@H](O[C@H]2C[C@@](C)(OC)[C@@H](O)[C@H](C)O2)[C@H](C)[C@@H](O[C@@H]2O[C@H](C)C[C@H](N(C)C)[C@H]2O)[C@](C)(O)C[C@@H](C)CN(C)[C@H](C)[C@@H](O)[C@]1(C)O [3-day azithromycin, azithromycin]
[1]; BPP population, single 2.0 g dose vs 500 mg QD for 3 days
  bacteriologic eradication at TOC (Day 24–28): 81.4%
[1]; TOC
  clinical cure: 96.7%
[1]; in vivo
  bacteriologic recurrence at long-term follow up (Day 38–45): 7.7%
[1]; most frequent adverse event
  diarrhoea/loose stools: 11%

## Cc1cc(NS(=O)(=O)c2ccc(N)cc2)no1 [Sulfa, sulfamethoxazol]
[2]; 3 isolates
  MIC of sensitive isolates carrying sulI and sulII: 8 µg/mL
[2]; 6 strains
  MIC of sensitive strains without the three genes: 12 to 32 µg/mL
[2]; 20 out of 29
  resistant isolates: 65.5%

## CN(C)c1cc(NC(=O)CNC(C)(C)C)c(O)c2c1C[C@H]1C[C@H]3[C@H](N(C)C)C(O)=C(C(N)=O)C(=O)[C@@]3(O)C(O)=C1C2=O [TGC, tigecycline]
[3]; TGC 100 mg then 50 mg q12h iv, IMI/CIS 500/500 mg q6h, 5–14 days
  clinical cure rate at TOC, ME group: 80.6%
[3]; adverse events
  nausea: 31.0%
  vomiting: 25.7%
[3]; same regimens
  clinical cure rate at TOC, m-mITT cohort: 73.5%
[4]
  Δ Log10 CFU/ml: −2.59 Log10 CFU/ml
[5]
  Δ Log10 CFU/ml: −2.37 Log10 CFU/ml

## NCC[C@H](O)C(=O)N[C@@H]1C[C@H](N)[C@@H](O[C@H]2O[C@H](CN)[C@@H](O)[C@H](O)[C@H]2O)[C@H](O)[C@H]1O[C@H]1O[C@H](CO)[C@@H](O)[C@H](N)[C@H]1O [amikacin]
[6]
  resistance rate (NCCLS M100-S13): 0%
[7]; A/P (N = 200)
  % susceptible: 91%
[7]; EU (N = 354)
  % susceptible: 99%
[7]; NA (N = 163)
  % susceptible: 99%
[8]
  resistance rate (NCCLS M100-S13): 1%
[9]
  resistance rate (NCCLS M100-S13): 0%
[10]
  MIC: 4 µg/mL (≈ 6.83 µM)
[11]
  per cent susceptible: 98%
[12]
  Susceptible isolates: 100%
[13]; paediatric surgical unit (PSU)
  susceptibility rate: 62%
[13]; paediatric units (PU)
  susceptibility rate: 99%
[14]
  resistant isolates: 62.1%
[15]; Nocardia
  MIC50: 0.38 µg/mL (≈ 0.649 µM)
  MIC90: 1 µg/mL (≈ 1.71 µM)
[15]; read after 48 and 72 h
  MIC range: 0.016 to 2 µg/mL
[16]
  per cent susceptible: 99%
[17]
  strains with bactericidal activity (≥3 log10 cfu/ml decrease): 7 strains
[18]
  per cent susceptible: 99%

## CC1(C)S[C@@H]2[C@H](NC(=O)[C@H](NC(=O)N3CCNC3=O)c3ccccc3)C(=O)N2[C@H]1C(=O)O [azlocillin]
[19]
  resistance: 73.3%

## N[C@@H](C(=O)N[C@@H]1C(=O)N2C(C(=O)O)=C(Cl)CS[C@H]12)c1ccccc1 [cefaclor]
[20]
  susceptible: 92.1%
[21]
  Susceptibility: 82.5%

## Cc1nnc(SCC2=C(C(=O)O)N3C(=O)[C@@H](NC(=O)Cn4cnnn4)[C@H]3SC2)s1 [cefazolin]
[22]; Staphylococcus aureus, MSSA
  MIC50: < 0.5 µg/mL
  MIC90: < 1 µg/mL
[22]; n = 200
  MIC range: 250 to 1000 µg/mL
[23]
  sensitive: 80%
[24]
  significant biofilm killing: not achieved

## CC=CC1=C(C(=O)O)N2C(=O)[C@@H](NC(=O)[C@H](N)c3ccc(O)cc3)[C@H]2SC1 [cefprozil]
[20]
  susceptible: 93.3%
[21]
  Susceptibility: 87.3%

## O=C(N[C@H](CO)[C@H](O)c1ccc([N+](=O)[O-])cc1)C(Cl)Cl [chloramphenicol]
[25]; 1998
  % S: 96%
[25]; 1999
  % S: 99%
[25]; 2000
  % S: 97%
[25]; 2001
  % S: 95%
[25]; 2002
  % S: 93%
[25]; 2003
  % S: 96%
[26]; 1998
  % S: 99%
[26]; 1999
  % S: 98%
[26]; 2000
  % S: 99%
[26]; 2001
  % S: 100%
[26]; 2002
  % S: 99%
[26]; 2003
  % S: 100%
[14]
  resistant isolates: 100.0%
[27]
  resistance: 41%
[28]; Belgian collection (caecal samples; Belgium, France, Netherlands)
  resistance: 8%
[28]; Germany (carcass meat)
  resistance: 4%
[29]
  resistant strains: 6%

Reference: publication PMC7129073 (Clinical Microbiology and Infection, 2015)
